Assay results from ChEMBL document CHEMBL1122434, “Antitumor amino-substituted pyrido[3',4':4,5]pyrrolo[2,3-g]isoquinolines and pyrido[4,3-b]carbazole derivatives: synthesis and evaluation of compounds resulting from new side chain and heterocycle modifications” (J Med Chem, 1983).
Numbered stars: 1 amine (or outer) side, 2 acyl side, 3 side chain; on linkers, the order of the positions; unused ones are H or OH. Bridge positions count the residues as written; N and C are the ends. Square brackets hold non-standard residues; d marks the D form. Peptide text beside a SMILES is read from it. I, II: the chains in the order shown. Actinocin(1to9) = Cc1c2oc3c(C)ccc(C(=O)[*:2])c3nc-2c(C(=O)[*:1])c(N)c1=O; NMeV = CN[C@H](C(=O)O)C(C)C; Sar = CNCC(=O)O

Legend:
[1] = test system: L1210; assay: In vitro cytotoxicity against L1210 cell line as concentration required for 50% inhibition of cell growth; assay type: functional; conditions: Mus musculus, read-out: ID50 (the source's name)
[2] = test system: L1210; assay: Antitumor activity against L1210 leukemia cells measured as Median survival time at 10 mg/kg; assay type: functional, Mus musculus
[3] = test system: L1210; assay: Antitumor activity against L1210 leukemia cells measured as range of death at 10 mg/kg; value may range from 8 to 20; assay type: functional, Mus musculus
[4] = test system: L1210; assay: Cytotoxicity against L1210 tumor cell line, activity is expressed as K (inverse value of drug concentration); assay type: functional, cell-based; conditions: Mus musculus
[5] = test system: L1210; assay: Antitumor activity against L1210 leukemia cells measured as percent increase in life span (% ILS) at 10 mg/kg; assay type: functional; conditions: Mus musculus
[6] = Acute toxicity in mice (LD0) after i.p. administration (highest nontoxic dose); assay type: organism-based; conditions: mouse, in vivo, ip; read-out: LD0
[7] = test system: Mus musculus; assay: Acute toxicity in mice (LD100) after i.p. administration; assay type: organism-based; conditions: in vivo, ip
[8] = test system: L1210; assay: Antitumor activity against L1210 leukemia cells measured as range of death at 2.5 mg/kg; value may range from 14 to 19; assay type: functional, Mus musculus
[9] = test system: L1210; assay: Antitumor activity against L1210 leukemia cells measured as Median survival time at 2.5 mg/kg; assay type: functional, Mus musculus
[10] = test system: L1210; assay: Antitumor activity against L1210 leukemia cells measured as Median survival time at 15 mg/kg; assay type: functional, Mus musculus
[11] = test system: L1210; assay: Antitumor activity against L1210 leukemia cells measured as range of death at 15 mg/kg; value may range from 12 to 19; assay type: functional, Mus musculus
[12] = test system: L1210; assay: Antitumor activity against L1210 leukemia cells measured as Median survival time at 25 mg/kg; assay type: functional, Mus musculus
[13] = test system: L1210; assay: Antitumor activity against L1210 leukemia cells measured as range of death at 25 mg/kg; value may range from 14 to 19; conditions: Mus musculus
[14] = test system: L1210; assay: Antitumor activity against L1210 leukemia cells measured as range of death at 20 mg/kg; value may range from 14 to 25; assay type: functional, Mus musculus
[15] = test system: L1210; assay: Antitumor activity against L1210 leukemia cells measured as Median survival time at 20 mg/kg; assay type: functional, Mus musculus
[16] = test system: L1210; assay: Antitumor activity against L1210 leukemia cells measured as range of death at 15 mg/kg; value may range from 7 to 44; conditions: Mus musculus
[17] = test system: L1210; assay: Antitumor activity against L1210 leukemia cells measured as range of death at 10 mg/kg; value may range from 16 to 20; conditions: Mus musculus
[18] = test system: L1210; assay: Antitumor activity against L1210 leukemia cells measured as range of death at 10 mg/kg; value may range from 12 to 25; assay type: functional, Mus musculus
[19] = test system: L1210; assay: Antitumor activity against L1210 leukemia cells measured as range of death at 20 mg/kg; value may range from 14 to 17; assay type: functional, Mus musculus
[20] = test system: L1210; assay: Antitumor activity against L1210 leukemia cells measured as range of death at 10 mg/kg; value may range from 16 to 42; assay type: functional, Mus musculus
[21] = test system: L1210; assay: Antitumor activity against L1210 leukemia cells measured as range of death at 15 mg/kg; value may range from 19 to 35; assay type: functional, Mus musculus
[22] = test system: L1210; assay: Antitumor activity against L1210 leukemia cells measured as range of death at 10 mg/kg; assay type: functional, Mus musculus
[23] = test system: L1210; assay: Antitumor activity against L1210 leukemia cells measured as Median survival time at 12 mg/kg; assay type: functional, Mus musculus
[24] = test system: L1210; assay: Antitumor activity against L1210 leukemia cells measured as range of death at 12 mg/kg; value may range from 12 to 14; assay type: functional, Mus musculus
[25] = test system: L1210; assay: Antitumor activity against L1210 leukemia cells measured as range of death at 2.5 mg/kg; value may range from 12 to 19; assay type: functional, Mus musculus
[26] = test system: L1210; assay: Antitumor activity against L1210 leukemia cells measured as Median survival time at 12.5 mg/kg; assay type: functional, Mus musculus
[27] = test system: L1210; assay: Antitumor activity against L1210 leukemia cells measured as range of death at 12.5 mg/kg; value may range from 12 to 27; assay type: functional, Mus musculus
[28] = test system: L1210; assay: Antitumor activity against L1210 leukemia cells measured as range of death at 10 mg/kg; value may range from 14 to 19; assay type: functional, Mus musculus
[29] = test system: L1210; assay: Antitumor activity against L1210 leukemia cells measured as range of death at 20 mg/kg; value may range from 15 to 19; assay type: functional, Mus musculus
[30] = test system: L1210; assay: Antitumor activity against L1210 leukemia cells measured as range of death at 10 mg/kg; value may range from 8 to 28; assay type: functional, Mus musculus
[31] = test system: L1210; assay: Antitumor activity against L1210 leukemia cells measured as range of death at 3.75 mg/kg; value may range from 15 to 21; assay type: functional, Mus musculus
[32] = test system: L1210; assay: Antitumor activity against L1210 leukemia cells measured as Median survival time at 3.75 mg/kg; assay type: functional, Mus musculus
[33] = test system: L1210; assay: Antitumor activity against L1210 leukemia cells measured as range of death at 20 mg/kg; value may range from 9 to 12; assay type: functional, Mus musculus

SMILES | IC50 [1] [nM] | MST [2] [days] | K [4] [µM⁻¹] | ILS at 10 mg/kg [5] [%] | MTD [6] [mg/kg] | LD100 [7] [mg/kg] | other results
Cc1c2c(NCCCN(C)C)nccc2c(C)c2c1c1cc(O)ccc1n2C | 30 | 16.3 | 33 | 68 | 10 | 50 | Range of death [3]: 20 days
CCN(CC)CCCNc1nccc2c(C)c3[nH]c4ccc(O)cc4c3c(C)c12 | 30 |  | 33 |  | 3 | 10 | Range of death [8]: 19 days; MST [9]: 16.5 days
CCN(CC)CCCNc1nccc2c(C)c3[nH]c4ccc(OC)cc4c3cc12 | 5000 |  | 0.2 |  | 20 | 40 | MST [10]: 14.3 days; Range of death [11]: 19 days
Cc1c2ccnc(NCCCN(CCO)CCO)c2cc2c3c[nH]ccc-3nc12 | 600 |  | 1.7 |  | 30 | 100 | MST [12]: 15.5 days; Range of death [13]: 19 days
CCN(CC)CCCNc1nccc2c(C)c3[nH]c4ccncc4c3cc12 [PAZELLIPTINE] | 20 |  | 50 |  | 25 | 30 | Range of death [14]: 25 days; MST [15]: 20.5 days
Cc1c2ccnc(NCCCN(C)C)c2c(C)c2c1[nH]c1ccncc12 | 8 |  | 125 |  | 15 | 20 | MST [10]: 25.2 days; Range of death [16]: 44 days
CCN(CC)CCCNc1nccc2c(C)c3[nH]c4ccncc4c3c(C)c12 | 7 | 16.8 | 143 | 46 | 10 | 20 | Range of death [17]: 20 days
CCNCCCNc1nccc2c(C)c3[nH]c4ccc(OC)cc4c3cc12 | 600 | 14.8 | 1.7 | 26 | 20 | 30 | Range of death [18]: 25 days
Cc1c2ccnc(NCC(O)CO)c2cc2c3c[nH]ccc-3nc12 (stereo not given) | 250 |  | 4 |  | 40 | 60 | Range of death [19]: 17 days; MST [15]: 16 days
CCNCCCNc1nccc2c(C)c3[nH]c4ccncc4c3cc12 | 100 | 25 | 10 | 114 | 20 | 30 | Range of death [20]: 42 days
CCN(CC)CCCNc1nccc2c(C)c3[nH]c4ccc(OC)cc4c3c(C)c12 [RETELLIPTINE] | 30 |  | 30 |  | 15 | 60 | MST [10]: 29.5 days; Range of death [21]: 35 days
CCN(CC)CCCNc1nccc2c(C)c3[nH]c4ccc(O)cc4c3cc12 | 20 |  | 50 |  | 2.5 | 7 | Range of death [8]: 19 days; MST [9]: 16.4 days
COc1ccc2[nH]c3c(C)c4ccnc(NCCCN(CCCl)CCCl)c4cc3c2c1 | 200 | 13.6 | 5 | 26 | 15 | 20 | Range of death [22]: 12 days
CCN(CC)CCCNc1nccc2c(C)c3c(cc12)c1cc(O)ccc1n3C | 60 |  | 16 |  | 12.5 | 25 | MST [23]: 13 days; Range of death [24]: 14 days
CCNCCCNc1nccc2c(C)c3c(c(C)c12)c1cc(O)ccc1n3C | 20 |  | 50 |  | 10 | 25 | Range of death [25]: 19 days; MST [9]: 14.5 days
CCN(CC)CC(O)CNc1nccc2c(C)c3[nH]c4ccncc4c3cc12 (stereo not given) | 50 |  | 20 |  | 25 | 40 | MST [26]: 16.3 days; Range of death [27]: 27 days
CCN(CC)CCCNc1nccc2c(C)c3c(c(C)c12)c1cc(O)ccc1n3C | 200 | 16.1 | 5 | 66.5 | 12 | 25 | Range of death [28]: 19 days
CCN(CCCN)CCCNc1nccc2c(C)c3[nH]c4ccncc4c3cc12 | 200 |  | 5 |  | 20 | 40 | Range of death [29]: 19 days; MST [15]: 17 days
CCNCCCNc1nccc2c(C)c3[nH]c4ccc(OC)cc4c3c(C)c12 | 100 | 20 | 10 | 84 | 16 | 20 | Range of death [30]: 28 days
Cc1c2oc3c(C)ccc(C(=O)N[C@@H]4C(=O)N[C@H](C(C)C)C(=O)N5CCC[C@H]5C(=O)N(C)CC(=O)N(C)[C@@H](C(C)C)C(=O)O[C@@H]4C)c3nc-2c(C(=O)N[C@@H]2C(=O)N[C@H](C(C)C)C(=O)N3CCC[C@H]3C(=O)N(C)CC(=O)N(C)[C@@H](C(C)C)C(=O)O[C@@H]2C)c(N)c1=O [DACTINOMYCIN] (I: T[dV]P[Sar][NMeV] / II: T[dV]P[Sar][NMeV]; ester I:1-I:C, II:1-II:C; linker I:N-II:N via Actinocin(1to9)) | 1 |  | 1000 |  |  |  | 
COc1ccc2[nH]c3c(C)c4ccnc(NCCCN(CCO)CCO)c4c(C)c3c2c1 | 400 |  | 2.5 |  | 10 | 15 | Range of death [31]: 21 days; MST [32]: 18.4 days
CCN(CC)CCNc1nccc2c(C)c3c(cc12)c1cc(OC)ccc1n3C | 2000 |  | 0.5 |  | 20 | 30 | Range of death [33]: 12 days; MST [15]: 11 days
